Source: patent US9708316B2 (BRISTOL-MYERS SQUIBB COMPANY, priority 2014, dated 2017)

Columns and labels:
HIS-TGFβR1 T204D = biological target: T1, HIS-TGFβR1 T204D (Homo sapiens, UniProt P36897, T204D); experiment: HTRF probe-displacement assay, HIS-TGFβR1 T204D; format: binding; conditions: read-out: TGFβR1 (μM) IC50
T1 sequence (P36897 34-503 T204D): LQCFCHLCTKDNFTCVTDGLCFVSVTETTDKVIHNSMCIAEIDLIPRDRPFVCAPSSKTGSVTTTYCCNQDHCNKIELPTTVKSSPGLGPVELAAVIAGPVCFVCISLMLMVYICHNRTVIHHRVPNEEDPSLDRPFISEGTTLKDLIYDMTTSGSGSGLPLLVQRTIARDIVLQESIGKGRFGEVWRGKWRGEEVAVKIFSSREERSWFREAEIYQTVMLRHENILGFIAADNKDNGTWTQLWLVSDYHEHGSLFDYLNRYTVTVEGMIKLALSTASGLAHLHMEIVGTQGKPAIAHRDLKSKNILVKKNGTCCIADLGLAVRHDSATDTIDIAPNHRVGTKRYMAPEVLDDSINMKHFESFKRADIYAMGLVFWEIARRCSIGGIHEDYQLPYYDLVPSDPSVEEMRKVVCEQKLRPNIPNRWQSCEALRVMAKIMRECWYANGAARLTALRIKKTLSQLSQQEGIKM

HIS-TGFβR2 WT = HIS-TGFβR2 WT (Homo sapiens, UniProt P37173); experiment: HTRF probe-displacement assay, HIS-TGFβR2 WT; format: binding
Sequence of HIS-TGFβR2 WT (P37173 23-567): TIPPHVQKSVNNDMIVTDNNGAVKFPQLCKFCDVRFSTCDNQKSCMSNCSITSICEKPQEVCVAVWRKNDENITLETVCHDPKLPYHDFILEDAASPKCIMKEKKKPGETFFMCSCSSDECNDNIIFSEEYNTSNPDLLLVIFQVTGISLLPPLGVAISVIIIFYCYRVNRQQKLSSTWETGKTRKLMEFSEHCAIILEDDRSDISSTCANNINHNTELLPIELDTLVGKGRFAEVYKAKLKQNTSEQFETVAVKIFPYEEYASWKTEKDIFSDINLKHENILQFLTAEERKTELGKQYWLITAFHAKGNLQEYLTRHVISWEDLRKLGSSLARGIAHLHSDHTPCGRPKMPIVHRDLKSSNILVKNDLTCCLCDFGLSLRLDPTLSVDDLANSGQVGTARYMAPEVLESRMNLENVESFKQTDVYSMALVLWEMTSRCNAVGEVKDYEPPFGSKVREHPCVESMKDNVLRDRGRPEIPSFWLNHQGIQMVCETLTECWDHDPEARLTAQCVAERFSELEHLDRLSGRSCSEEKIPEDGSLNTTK

SMILES | IC50 (HIS-TGFβR1 T204D) [µM] | IC50 (HIS-TGFβR2 WT) [µM]
CC(=O)Nc1cc(-c2[nH]c3cc(C)cnc3c2-c2csc(C)n2)ccn1 [Example 186, N-(4-(6-Methyl-3-(2-methylthiazol-4-yl)-1H-pyrrolo[3,2-b]pyridin-2-yl)pyridin-2-yl)acetamide] | 0.0029 | 0.821
COc1nc(-c2c(-c3ccnc(NC(C)=O)c3)[nH]c3cccnc23)cs1 [Example 201, N-(4-(3-(2-Methoxythiazol-4-yl)-1H-pyrrolo[3,2-b]pyridin-2-yl)pyridin-2-yl)acetamide] | 0.0275 | 1.53
CNc1cc(-c2[nH]c3cc(Cl)cnc3c2-c2ccc(F)cn2)ccn1 [Example 82, 4-[6-Chloro-3-(5-fluoropyridin-2-yl)-1H-pyrrolo[3,2-b]pyridin-2-yl]-N-methylpyridin-2-amine] | 0.006 | 4.05
COc1cnc2c(-c3nc(C(F)(F)F)cs3)c(-c3ccnc(NC(C)=O)c3)[nH]c2c1 [Example 229, N-(4-(6-Methoxy-3-(4-(trifluoromethyl)thiazol-2-yl)-1H-pyrrolo[3,2-b]pyridin-2-yl)pyridin-2-yl)acetamide] | 0.0014 | 10.9
CC(=O)Nc1cc(-c2[nH]c3cc(F)cnc3c2-c2nc(C#N)cs2)ccn1 [Example 226, N-(4-(3-(4-Cyanothiazol-2-yl)-6-fluoro-1H-pyrrolo[3,2-b]pyridin-2-yl)pyridin-2-yl)acetamide] | 0.0041 | 1.55
CC(=O)Nc1cc(-c2[nH]c3cc(Cl)cnc3c2-c2ccc(F)cn2)ccn1 [Example 42, N-{4-[6-Chloro-3-(5-fluoropyridin-2-yl)-1H-pyrrolo[3,2-b]pyridin-2-yl]pyridin-2-yl}acetamide] | 0.004 | 0.46
CC(=O)Nc1cc(-c2[nH]c3nccnc3c2-c2cccc(Cl)n2)ccn1 [Example 55, N-{4-[7-(6-Chloropyridin-2-yl)-5H-pyrrolo[2,3-b]pyrazin-6-yl]pyridin-2-yl}acetamide] | 0.003 | 0.069
O=C(CNCCO)Nc1cc(-c2[nH]c3cc(Cl)cnc3c2-c2ccc(F)cn2)ccn1 [Example 75, N-{4-[6-Chloro-3-(5-fluoropyridin-2-yl)-1H-pyrrolo[3,2-b]pyridin-2-yl]pyridin-2-yl}-2-[(2-hydroxyethyl)amino]acetamide] | 0.005 | 1.03
CC(=O)Nc1cc(-c2[nH]c3cccnc3c2-c2nc(C)ccc2F)ccn1 [Example 107, N-(4-(3-(3-Fluoro-6-methylpyridin-2-yl)-1H-pyrrolo[3,2-b]pyridin-2-yl)pyridin-2-yl)acetamide] | 0.001 | 8.14
CCN1CCN(CC(=O)Nc2cc(-c3[nH]c4cc(Cl)cnc4c3-c3ccc(OC)nc3)ccn2)CC1 [Example 291, N-(4-(6-chloro-3-(6-methoxypyridin-3-yl)-1H-pyrrolo[3,2-b]pyridin-2-yl)pyridin-2-yl)-2-(4-ethylpiperazin-1-yl)acetamide] | 0.001 | 1.66
CC(=O)Nc1cc(-c2[nH]c3c(CN(C)C)ccnc3c2-c2cccc(C(F)F)n2)ccn1 [Example 141, N-(4-{3-[6-(Difluoromethyl)pyridin-2-yl]-7-[(dimethylamino)methyl]-1H-pyrrolo[3,2-b]pyridin-2-yl}pyridin-2-yl)acetamide] | 0.003 | 27.3
CC(=O)Nc1cc(-c2[nH]c3c(CN4CCOCC4)ccnc3c2-c2cccc(C(F)F)n2)ccn1 [Example 140, N-(4-{3-[6-(Difluoromethyl)pyridin-2-yl]-7-(morpholin-4-ylmethyl)-1H-pyrrolo[3,2-b]pyridin-2-yl}pyridin-2-yl)acetamide] | 0.001 | 7.6
COc1ccc(-c2c(-c3ccnc(NC(C)=O)c3)[nH]c3c(C#N)ccnc23)cn1 [Example 80, N-(4-(7-Cyano-3-(6-methoxypyridin-3-yl)-1H-pyrrolo[3,2-b]pyridin-2-yl)pyridin-2-yl)acetamide] | 0.007 | 0.083
COc1cnc2c(-c3cccc(C)n3)c(-c3ccnc(NC(=O)CN(C)C)c3)[nH]c2c1 [Example 116, 2-(Dimethylamino)-N-{4-[6-methoxy-3-(6-methylpyridin-2-yl)-1H-pyrrolo[3,2-b]pyridin-2-yl]pyridin-2-yl}acetamide] | 0.005 | 7.35
CC(=O)Nc1cc(-c2[nH]c3cccnc3c2-c2ccc(Cl)nc2)ccn1 [Example 9, N-{4-[3-(6-Chloropyridin-3-yl)-1H-pyrrolo[3,2-b]pyridin-2-yl]pyridin-2-yl}acetamide] | 0.023 | 0.33
COc1cc(-c2c(-c3ccnc(NC(C)=O)c3)[nH]c3cccnc23)ccn1 [Example 196, N-(4-(3-(2-Methoxypyridin-4-yl)-1H-pyrrolo[3,2-b]pyridin-2-yl)pyridin-2-yl)acetamide] | 0.0951 | 1.21

SMILES | IC50 (HIS-TGFβR1 T204D) [µM] | IC50 (HIS-TGFβR2 WT) [µM]
CC(=O)Nc1cc(-c2[nH]c3cc(Cl)cnc3c2-c2nc(C#N)cs2)ccn1 [Example 177, N-(4-(6-Chloro-3-(4-cyanothiazol-2-yl)-1H-pyrrolo[3,2-b]pyridin-2-yl)pyridin-2-yl)acetamide] | 0.0014 | > 15
CC(=O)Nc1cc(-c2[nH]c3cccnc3c2-c2cccc3cccnc23)ccn1 [Example 21, N-{4-[3-(Quinolin-8-yl)-1H-pyrrolo[3,2-b]pyridin-2-yl]pyridin-2-yl}acetamide] | 1.49 | > 15
CC(=O)Nc1cc(-c2[nH]c3cccnc3c2-c2cn[nH]c2)ccn1 [Example 189, N-(4-(3-(1H-Pyrazol-4-yl)-1H-pyrrolo[3,2-b]pyridin-2-yl)pyridin-2-yl)acetamide] | 0.249 | 0.089
CC(=O)Nc1cc(-c2[nH]c3c(C4CCN(C)CC4)ccnc3c2-c2cccc(C)n2)ccn1 [Example 138, N-{4-[7-(1-Methylpiperidin-4-yl)-3-(6-methylpyridin-2-yl)-1H-pyrrolo[3,2-b]pyridin-2-yl]pyridin-2-yl}acetamide] | 0.2 | > 15
COCCOc1cnc2c(-c3ccc(OC)cn3)c(-c3ccnc(NC(C)=O)c3)[nH]c2c1 [Example 95, N-(4-(6-(2-Methoxyethoxy)-3-(5-methoxypyridin-2-yl)-1H-pyrrolo[3,2-b]pyridin-2-yl)pyridin-2-yl)acetamide] | 0.002 | > 15
COc1cnc(-c2c(-c3ccnc(NC(C)=O)c3)[nH]c3cccnc23)cn1 [Example 194, N-(4-(3-(5-Methoxypyrazin-2-yl)-1H-pyrrolo[3,2-b]pyridin-2-yl)pyridin-2-yl)acetamide] | 0.005 | 4.31
CC(=O)Nc1cc(-c2[nH]c3c(CO)ccnc3c2-c2cccc(F)n2)ccn1 [Example 275, N-(4-(3-(6-Fluoropyridin-2-yl)-7-(hydroxymethyl)-1H-pyrrolo[3,2-b]pyridin-2-yl)pyridin-2-yl)acetamide] | 0.003 | 0.637
CC(=O)Nc1cc(-c2[nH]c3c(Cl)ccnc3c2-c2ccc(Cl)cn2)ccn1 [Example 63, N-{4-[7-Chloro-3-(5-chloropyridin-2-yl)-1H-pyrrolo[3,2-b]pyridin-2-yl]pyridin-2-yl}acetamide] | 0.019 | > 15
O=C(CN1CCNCC1)Nc1cc(-c2[nH]c3cc(Cl)cnc3c2-c2ccc(F)cn2)ccn1 [Example 247, N-(4-(6-Chloro-3-(5-fluoropyridin-2-yl)-1H-pyrrolo[3,2-b]pyridin-2-yl)pyridin-2-yl)-2-(piperazin-1-yl)acetamide] | 0.003 | ≥ 15
CC(=O)Nc1cc(-c2[nH]c3c(C(C)F)ccnc3c2-c2cccc(C(F)F)n2)ccn1 (centres unmarked) [Example 233, N-(4-(3-(6-(Difluoromethyl)pyridin-2-yl)-7-(1-fluoroethyl)-1H-pyrrolo[3,2-b]pyridin-2-yl)pyridin-2-yl)acetamide] | 0.0014 | 4.06
COc1ccc(-c2c(-c3ccnc(NC(C)=O)c3)[nH]c3c(C)ccnc23)nc1 [Example 217, N-(4-(3-(5-Methoxypyridin-2-yl)-7-methyl-1H-pyrrolo[3,2-b]pyridin-2-yl)pyridin-2-yl)acetamide] | > 15 | > 15
COc1ccc(-c2c(-c3ccnc(NC(=O)CN4CCN(C)CC4)c3)[nH]c3cc(OC)cnc23)nc1 [Example 119, N-{4-[6-Methoxy-3-(5-methoxypyridin-2-yl)-1H-pyrrolo[3,2-b]pyridin-2-yl]pyridin-2-yl}-2-(4-methylpiperazin-1-yl)acetamide] | < 0.001 | > 15
CC(=O)Nc1cc(-c2[nH]c3c(C)ccnc3c2-c2cccc(C(F)F)n2)ccn1 [Example 216, N-(4-(3-(6-(Difluoromethyl)pyridin-2-yl)-7-methyl-1H-pyrrolo[3,2-b]pyridin-2-yl)pyridin-2-yl)acetamide] | 0.0013 | 3.77
COc1ccc(-c2c(-c3ccnc(NC(C)=O)c3)[nH]c3cc(Br)cnc23)nc1 [Example 83, N-{4-[6-Bromo-3-(5-methoxypyridin-2-yl)-1H-pyrrolo[3,2-b]pyridin-2-yl]pyridin-2-yl}acetamide] | 0.002 | > 15
CC(=O)Nc1cc(-c2[nH]c3c(-c4ccnn4C)ccnc3c2-c2cccc(C(F)F)n2)ccn1 [Example 129, N-(4-{3-[6-(Difluoromethyl)pyridin-2-yl]-7-(1-methyl-1H-pyrazol-5-yl)-1H-pyrrolo[3,2-b]pyridin-2-yl}pyridin-2-yl)acetamide] | 0.007 | > 15
